The results in this text go back to patent US20230103631A1, “PEPTIDES AS SELECTIVE GIP RECEPTOR AGONISTS” (Sanofi, priority 2020, published 2023).

This data set is described as follows: Dynamic light scattering (DLS) for the assessment of physical stability. The class given is physicochemical. To be noted: DLS buffer system A. The source says: A monochromatic and coherent light beam (laser) is used to illuminate the liquid sample. Dynamic Light Scattering (DLS) measures light scattered from particles (1 nm≤radius≤1 μm) that undergo Brownian motion. This motion is induced by collisions between the particles and solvent molecules, that themselves are moving due to their thermal energy. The diffusional motion of the particles results in temporal fluctuations of the scattered light (R. Pecora, Dynamic Light Scattering: Applications of Photon Correlation Spectroscopy, Plenum Press, 1985).
The scattered light intensity fluctuations are recorded and transformed into an autocorrelation function. By fitting the autocorrelation curve to an exponential function, the diffusion coefficient D of the particles in solution can be derived. The diffusion coefficient is then used to calculate the hydrodynamic radius Rh (or apparent Stokes radius) through the Stokes-Einstein equation assuming spherical particles. This calculation is defined in ISO 13321 and ISO 22412 (International Standard ISO13321 Methods for Determination of Particle Size Distribution Part 8: Photon Correlation Spectroscopy, International Organisation for Standardisation (ISO) 1996; International Standard ISO22412 Particle Size Analysis—Dynamic Light Scattering, International Organisation for Standardisation, 2008).
In case of polydisperse samples, the autocorrelation function is the sum of the exponential decays corresponding to each of the species. The temporal fluctuations of the scattered light can then be used to determine the size distribution profile of the particle fraction or family. The first order result is an intensity distribution of scattered light as a function of the particle size. The intensity distribution is naturally weighted according to the scattering intensity of each particle fraction or family. For biological materials or polymers, the particle scattering intensity is proportional to the square of the molecular weight. Thus, small amount of aggregates/agglomerates or presence or a larger particle species can dominate the intensity distribution. However, this distribution can be used as a sensitive detector for the presence of large material in the sample.
The DLS technique produces distributions with inherent peak broadening. The polydispersity index % Pd is a measure of the width of the particle size distribution and is calculated by standard methods described in ISO13321 and ISO22412 [International Standard ISO13321 Methods for Determination of Particle Size Distribution Part 8: Photon Correlation Spectroscopy, International Organisation for Standardisation (ISO) 1996; International Standard ISO22412 Particle Size Analysis—Dynamic Light Scattering, International Organisation for Standardisation (ISO) 2008].
Solutions from solid samples were prepared in buffer systems (see below) with a target concentration of 300 μM compound based on the previously determined % purity.
DLS buffer system A) 20 mM phosphate buffer pH 7.4
DLS buffer system B) 8 mM phosphate buffer pH 7.4, 14 mg/ml propylene glycol, 5.5 mg/ml phenol
DLS buffer system C) 100 mM phosphate buffer pH 7.4, 2.7 mg/ml m-cresol Solutions were filtered through 0.22 μm pore size and filled into sterilized glass containers under laminar flow conditions. For every peptide solution, the apparent hydrodynamic radius (Rh), the corresponding Scattering Intensity (I), and the Mass Contribution (M) were determined as an average over 3-6 replicates from the intensity distribution of the scattered light averaging only high-quality measurements. Relative standard deviations (RSD) for these parameters were calculated from the same number of replicates. […]

*1 amine or outer side, *2 acyl side, *3 side chain or, on linkers, in order; H or OH if unused. Where a SMILES comes first, the peptide text is derived from it. Side-chain parts run from the residue outwards. [ ]: non-standard residue; d: D form. The star is where a group is joined. C20 diacid = O=C(O)CCCCCCCCCCCCCCCCCCC(=O)*; C18 diacid = O=C(O)CCCCCCCCCCCCCCCCC(=O)*; γGlu = O=C(O)[C@H](CCC(=O)[*:2])N[*:1]; AEEA = NCCOCCOCC(=O)O; Aib = CC(C)(N)C(=O)O

For the compound `CC[C@H](C)[C@H](NC(=O)[C@H](CCCNC(=N)N)NC(=O)[C@H](CC(=O)O)NC(=O)[C@H](CCCCNC(=O)COCCOCCNC(=O)COCCOCCNC(=O)CC[C@H](NC(=O)CCCCCCCCCCCCCCCCCCC(=O)O)C(=O)O)NC(=O)C(C)(C)NC(=O)[C@@H](NC(=O)[C@H](CO)NC(=O)[C@H](CC(C)C)NC(=O)[C@H](CC(=O)O)NC(=O)[C@H](CO)NC(=O)[C@@H](NC(=O)[C@H](Cc1ccccc1)NC(=O)[C@@H](NC(=O)CNC(=O)[C@H](CCC(=O)O)NC(=O)C(C)(C)NC(=O)[C@@H](N)Cc1ccc(O)cc1)[C@@H](C)O)[C@@H](C)CC)[C@@H](C)CC)C(=O)N[C@@H](Cc1c[nH]cn1)C(=O)N[C@@H](CCC(N)=O)C(=O)NC(C)(C)C(=O)N[C@@H](CCC(=O)O)C(=O)N[C@@H](Cc1ccccc1)C(=O)N[C@H](C(=O)N[C@@H](CCC(=O)O)C(=O)N[C@@H](Cc1c[nH]c2ccccc12)C(=O)N[C@@H](CC(C)C)C(=O)N[C@@H](CC(C)C)C(=O)N[C@@H](C)C(=O)N[C@@H](CCC(N)=O)C(=O)NCC(=O)N1CCC[C@H]1C(=O)N[C@@H](CO)C(=O)N[C@@H](CO)C(=O)NCC(=O)N[C@@H](C)C(=O)N1CCC[C@H]1C(=O)N1CCC[C@H]1C(=O)N1CCC[C@H]1C(=O)N[C@@H](CO)C(N)=O)[C@@H](C)CC` [SEQ ID NO: 7, H2N-Y-Aib-E-G-T-F-I-S-D-I-S-I-Aib-K[{AEEA}2-gGlu-C20OH]-D-R-I-H-Q-Aib-E-F-I-E-W-I-L-A-Q-G-P-S-S-G-A-P-P-P-S-NH2] (H-Y[Aib]EGTFISDLSI[Aib]K([AEEA-AEEA-γGlu-C20 diacid])DRIHQ[Aib]EFIEWLLAQGPSSGAPPPS-NH2), for the setting “0 weeks”, the “I and SD (Scattering Intensity)” value is recorded as 85 ± 2%; the “M and SD (Mass Contribution)” value turned out to be 100 ± 0%; the “apparent Rh and SD” value came to 2.06 ± 0.03 nm. In addition, under “4 weeks storage at 40° C.”, the “I and SD (Scattering Intensity)” value was determined as 73 ± 4%; the “M and SD (Mass Contribution)” value is listed as 100 ± 0%; the “apparent Rh and SD” value was 2.04 ± 0.02 nm.

On to `CC[C@H](C)[C@H](NC(=O)[C@H](Cc1ccccc1)NC(=O)[C@H](CCC(=O)O)NC(=O)[C@H](CCC(=O)O)NC(=O)[C@H](CCC(N)=O)NC(=O)[C@H](Cc1c[nH]cn1)NC(=O)[C@@H](NC(=O)[C@H](CCCNC(=N)N)NC(=O)[C@H](CC(=O)O)NC(=O)[C@H](CCCCNC(=O)COCCOCCNC(=O)COCCOCCNC(=O)CC[C@H](NC(=O)CCCCCCCCCCCCCCCCCCC(=O)O)C(=O)O)NC(=O)C(C)(C)NC(=O)[C@@H](NC(=O)[C@H](CO)NC(=O)[C@H](CC(C)C)NC(=O)[C@H](CC(=O)O)NC(=O)[C@H](CO)NC(=O)[C@@H](NC(=O)[C@H](Cc1ccccc1)NC(=O)[C@@H](NC(=O)CNC(=O)[C@H](CCC(=O)O)NC(=O)C(C)(C)NC(=O)[C@@H](N)Cc1ccc(O)cc1)[C@@H](C)O)[C@@H](C)CC)[C@@H](C)CC)[C@@H](C)CC)C(=O)N[C@@H](CCC(=O)O)C(=O)N[C@@H](Cc1c[nH]c2ccccc12)C(=O)N[C@@H](CC(C)C)C(=O)N[C@@H](CC(C)C)C(=O)N[C@@H](C)C(=O)N[C@@H](CCC(N)=O)C(=O)NCC(=O)N1CCC[C@H]1C(=O)N[C@@H](CO)C(=O)N[C@@H](CO)C(=O)NCC(=O)N[C@@H](C)C(=O)N1CCC[C@H]1C(=O)N1CCC[C@H]1C(=O)N1CCC[C@H]1C(=O)N[C@@H](CO)C(N)=O` [SEQ ID NO: 10, H2N-Y-Aib-E-G-T-F-I-S-D-I-S-I-Aib-K[{AEEA}2-gGlu-C20OH]-DRIHQEEFIEWILAQGPSSGAPPPS-NH2] (H-Y[Aib]EGTFISDLSI[Aib]K([AEEA-AEEA-γGlu-C20 diacid])DRIHQEEFIEWLLAQGPSSGAPPPS-NH2), for which, for the setting “0 weeks”, the “I and SD (Scattering Intensity)” value was found to be 60 ± 3%; the “M and SD (Mass Contribution)” value came out at 100 ± 0%; the “apparent Rh and SD” value was 1.97 ± 0.03 nm. Besides, where the note is “4 weeks storage at 40° C.”, the “I and SD (Scattering Intensity)” value turned out to be 75 ± 3%; the “M and SD (Mass Contribution)” value was found to be 100 ± 0%; the “apparent Rh and SD” value came out at 1.91 ± 0.04 nm.

Regarding `CC[C@H](C)[C@H](NC(=O)[C@H](Cc1ccccc1)NC(=O)[C@H](CCC(=O)O)NC(=O)[C@H](CCC(=O)O)NC(=O)[C@H](CCC(N)=O)NC(=O)[C@H](Cc1c[nH]cn1)NC(=O)[C@@H](NC(=O)[C@H](CCCNC(=N)N)NC(=O)[C@H](CC(=O)O)NC(=O)[C@H](CCCCNC(=O)COCCOCCNC(=O)COCCOCCNC(=O)CC[C@H](NC(=O)CCCCCCCCCCCCCCCCC(=O)O)C(=O)O)NC(=O)C(C)(C)NC(=O)[C@@H](NC(=O)[C@H](CO)NC(=O)[C@H](CC(C)C)NC(=O)[C@H](CC(=O)O)NC(=O)[C@H](CO)NC(=O)[C@@H](NC(=O)[C@H](Cc1ccccc1)NC(=O)[C@@H](NC(=O)CNC(=O)[C@H](CCC(=O)O)NC(=O)C(C)(C)NC(=O)[C@@H](N)Cc1ccc(O)cc1)[C@@H](C)O)[C@@H](C)CC)[C@@H](C)CC)[C@@H](C)CC)C(=O)N[C@@H](CCC(=O)O)C(=O)N[C@@H](Cc1c[nH]c2ccccc12)C(=O)N[C@@H](CC(C)C)C(=O)N[C@@H](CC(C)C)C(=O)N[C@@H](C)C(=O)N[C@@H](CCC(N)=O)C(=O)NCC(=O)N1CCC[C@H]1C(=O)N[C@@H](CO)C(=O)N[C@@H](CO)C(=O)NCC(=O)N[C@@H](C)C(=O)N1CCC[C@H]1C(=O)N1CCC[C@H]1C(=O)N1CCC[C@H]1C(=O)N[C@@H](CO)C(=O)O` [SEQ ID NO: 11, H2N-Y-Aib-E-G-T-F-I-S-D-I-S-I-Aib-K[{AEEA}2-gGlu-C18OH]-DRIHQEEFIEWILAQGPSSGAPPPS-OH] (H-Y[Aib]EGTFISDLSI[Aib]K([AEEA-AEEA-γGlu-C18 diacid])DRIHQEEFIEWLLAQGPSSGAPPPS-OH), for the setting “0 weeks”, the “I and SD (Scattering Intensity)” value was 96 ± 1%; the “M and SD (Mass Contribution)” value is reported as 100 ± 0%; the “apparent Rh and SD” value is 1.82 ± 0.04 nm. Further, under “4 weeks storage at 40° C.”, the “I and SD (Scattering Intensity)” value stood at 85 ± 2%; the “M and SD (Mass Contribution)” value is reported as 100 ± 0%; the “apparent Rh and SD” value came out at 1.83 ± 0.05 nm.
